Source: patent US4590061A, “Antimicrobial plaque disclosing agent” (priority 1985, dated 1986)
Read-outs that look alike come from different tables or passages of the source.

Assays:
[1] = Approximate retention times in oral tissues
Excerpt: The approximate retention times in oral tissues of six alkaloids found in extracts from Sanguinaria canadensis is shown in Table IV.

[2] = Visual plaque disclosure scoring in healthy volunteers (Table I); type: in vivo; details: for Mean Plaque Area Score, 1 Hour later / Mean Plaque Area Score, Baseline: visual assessment
Method: Sanguinarine chloride was compared to two standard disclosing dyes, erythrosine and sodium fluorescein. At weekly interval healthy volunteers underwent a 12-24 hour, no oral hygiene period. Subjects then used one of the following: erythrosine, sodium flourescein, or sanguinarine chloride. Subjects rinsed two times with 15 ml. of the rinse, while the erythrosine and sodium fluorescein were used according to customary practice. Color was evaluated under ambient light after erythrosine, under ambient light for sodium fluorescein, and under longwave UV fluorescent light for sanguinarine. The color was scored for location, amount, and area.
All of the disclosing agents colored soft dental deposits at gingival margins and at the dorsal surface of the tongue. […] Mean values of plaque were measured for all disclosants.
(§1) This was the oral rinse used for the tests described in Tables I, II, and III.

variety of microorganism = assay: Antimicrobial properties (general statement); type: cell-based
[3] = tested on: human dental plaque forming microorganisms; assay: Reduction of dental plaque / inactivation of plaque forming microorganisms in vitro; type: cell-based
[4] = type: in vivo
Excerpt: This would indicate that the retention of sanguinarine in plaque may be responsible for its clinical effectiveness in plaque assays, and that plaque may serve as a reservoir for sanguinarine.
as §1

[5] = In vivo plaque retention of sanguinarine (HPLC)
Excerpt: as §1

[6] = alkaloids found in extracts from Sanguinaria canadensis
[7] = human, in vivo, po, In Vivo Plaque Retention of Sanguinarine

COc1ccc2c(c[n+](C)c3c4cc5c(cc4ccc23)OCO5)c1OC [Chelerythrine]
Approximate Retention time (in oral tissues) [1]: 16.5 to 17.0 min

C[n+]1cc2c3c(ccc2c2ccc4cc5c(cc4c21)OCO5)OCO3 [Sanguinarine chloride]
plaque disclosure ([2]; sanguinarine chloride mouthwash): disclosed plaque effectively | duration of disclosure ([2]; versus erythrosine and sodium fluorescein): lasted significantly longer than for the other two disclosing dyes | Mean Plaque Area Score, 1 Hour later [2]: 2.86 ± 0.26 | Mean Plaque Area Score, Baseline [2]: 2.87 ± 0.23 | antimicrobial properties (variety of microorganism): strong antimicrobial properties | killing at 25 µg/mL ([3]; Homo sapiens, 25 micrograms per milliliter, read-out: reduction of dental plaque by inactivating plaque forming microorganisms): 100% | comparison with chlorhexidine in inhibition of human dental plaque forming microorganisms ([3]; in vitro, versus chlorhexidine (Hibitane)): compated favorably in vitro with chlorhexidine

O=C1OC2(c3ccccc31)c1cc(I)c(O)c(I)c1Oc1c2cc(I)c(O)c1I [Erythrosine, reference compound]
Mean Plaque Area Score, 1 Hour later [2]: 2.18 ± 0.5 | Mean Plaque Area Score, Baseline [2]: 2.86 ± 0.43

O=C1OC2(c3ccc(O)cc3Oc3cc(O)ccc32)c2ccccc21 [Sodium Fluorescein, reference compound]
Mean Plaque Area Score, 1 Hour later [2]: 1.74 ± 0.45 | Mean Plaque Area Score, Baseline [2]: 2.84 ± 0.22

COc1cc2ccc3c4c(OC)cc5c(c4c[n+](C)c3c2cc1OC)OCO5 [Sanguirubine]
Approximate Retention time (in oral tissues) [1, 6]: 12.5 to 13.0 min

COc1cc2ccc3c4c(OC)cc(OC)c(OC)c4c[n+](C)c3c2cc1OC [Sanguilutine]
Approximate Retention time (in oral tissues) [1, 6]: 18.5 to 19.0 min

C[n+]1cc2c3c(ccc2c2ccc4cc5c(cc4c21)OCO5)OCO3 [Sanguinarine]
levels in saliva relative to anti-glycolytic effect [4]: high enough to exert an anti-glycolytic effect on saliva | Approximate Retention time (in oral tissues) [1, 6]: 9.5 to 10.0 min | level in plaque versus in vitro minimum inhibitory concentrations ([5]; HPLC, plaque): much higher in vitro minimum inhibitory concentrations | In Vivo Plaque Retention of Sanguinarine ([5]; human, in vivo, po, 1 h): 46 ug/g of wet plaque | concentration at 1 h [5, 7]: 56000 ng/g | concentration at 2 h [5, 7]: 27000 ng/g

COc1cc(OC)c2c(c[n+](C)c3c4cc5c(cc4ccc23)OCO5)c1OC [Chelilutine]
Approximate Retention time (in oral tissues) [1, 6]: 15.5 to 16.0 min

COc1cc2c(c3c[n+](C)c4c5cc6c(cc5ccc4c13)OCO6)OCO2 [Chelirubine]
Approximate Retention time (in oral tissues) [1, 6]: ~7.5 min
